Results taken from ChEMBL document CHEMBL2331467, “Fungal transformation of cedryl acetate and α-glucosidase inhibition assay, quantum mechanical calculations and molecular docking studies of its metabolites” (Eur J Med Chem, 2013).

Biological target: Alpha-glucosidase MAL62 (Saccharomyces cerevisiae, UniProt P07265)
Test: Inhibition of yeast alpha-glucosidase using para-nitrophenyl alpha-D-glucopyranoside as substrate by spectrophotometric analysis; call rule not given here

Alpha-glucosidase MAL62, sequence (P07265 whole entry): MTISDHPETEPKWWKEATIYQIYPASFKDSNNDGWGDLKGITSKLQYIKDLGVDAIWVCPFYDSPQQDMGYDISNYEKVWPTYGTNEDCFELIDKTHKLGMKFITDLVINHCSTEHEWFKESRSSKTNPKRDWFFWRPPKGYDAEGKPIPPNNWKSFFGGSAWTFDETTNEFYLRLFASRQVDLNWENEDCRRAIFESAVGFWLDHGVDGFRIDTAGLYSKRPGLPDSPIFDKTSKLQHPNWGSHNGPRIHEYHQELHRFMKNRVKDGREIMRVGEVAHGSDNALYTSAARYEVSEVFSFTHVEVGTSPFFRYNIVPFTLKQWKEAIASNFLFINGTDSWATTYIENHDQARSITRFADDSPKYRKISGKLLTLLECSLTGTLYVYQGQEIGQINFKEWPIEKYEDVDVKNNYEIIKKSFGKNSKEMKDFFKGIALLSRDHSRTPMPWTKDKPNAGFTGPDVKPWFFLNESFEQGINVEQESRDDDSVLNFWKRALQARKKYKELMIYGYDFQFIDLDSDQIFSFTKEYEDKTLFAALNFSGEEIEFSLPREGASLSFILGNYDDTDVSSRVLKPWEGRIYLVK

Compound | IC50
CC(=O)O[C@]1(C)C[C@H](O)[C@@]23C[C@H]1C(C)(C)[C@@H]2C[C@H](O)[C@H]3C | Not Active
CC(=O)O[C@]1(C)C[C@H](O)[C@@]23C[C@H]1C(C)(C)[C@@H]2CC[C@]3(C)O | 690 µM
C[C@@H]1CC[C@H]2C(C)(C)[C@H]3C[C@@]12CC[C@@]3(C)O [CEDROL] | 130 µM
CC(=O)O[C@]1(C)CC[C@@]23C[C@H]1C(C)(C)[C@@H]2CC[C@H]3C [CEDRYL ACETATE] | 94 µM
OC[C@H]1NC[C@H](O)[C@@H](O)[C@@H]1O [DUVOGLUSTAT] | 426 µM
